Drawing on ChEMBL document CHEMBL1151097, “Phenyl-glycinol based NK1 receptor antagonists towards the minimum pharmacophore” (Bioorg Med Chem Lett, 1995), this text covers IC50 and pKa for 11 compounds.

Data set [1] addresses Substance-P receptor (Homo sapiens, UniProt P25103). The data set is described as follows: Binding affinity to human Tachykinin receptor 1.
The nature of data set [2]: pKa value was determined. It is filed as physicochemical.
Data set [3] deals with Voltage-gated L-type calcium channel (Homo sapiens, UniProt Q13936+Q13698+Q01668+O60840). Kind of data set: Inhibition of binding to L-type [Ca2+] channel. Format: protein assay.

Substance-P receptor, sequence (P25103 whole entry): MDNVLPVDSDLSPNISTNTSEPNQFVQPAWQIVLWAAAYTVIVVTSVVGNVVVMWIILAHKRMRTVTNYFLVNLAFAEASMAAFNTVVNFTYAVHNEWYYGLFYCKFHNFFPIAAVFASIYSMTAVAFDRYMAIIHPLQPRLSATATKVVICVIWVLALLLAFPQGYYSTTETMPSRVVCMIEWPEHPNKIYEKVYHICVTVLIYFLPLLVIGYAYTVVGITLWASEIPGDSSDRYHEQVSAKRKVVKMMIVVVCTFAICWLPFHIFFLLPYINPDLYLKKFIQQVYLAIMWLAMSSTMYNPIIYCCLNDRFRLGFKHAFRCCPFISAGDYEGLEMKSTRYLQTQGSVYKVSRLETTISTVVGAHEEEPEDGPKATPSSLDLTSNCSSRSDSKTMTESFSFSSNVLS

Regarding `Cc1cc(COC[C@@H](N)c2ccccc2)cc(C(C)(C)C)c1`, the IC50 in data set [1] turned out to be 0.0137 µM.
The same measure, in the same setting: the same measure for `CC(OCC(N)c1ccccc1)c1cc(C(F)(F)F)cc(C(F)(F)F)c1` (stereo not given): 0.0043 µM.
Same read-out and setting: then `CC(N)(COCc1cc(C(F)(F)F)cc(C(F)(F)F)c1)c1ccccc1` (stereo not given), with 0.03 µM; and `COc1cc(C)cc(COC[C@@H](N)c2ccccc2)c1`, with 0.135 µM.
On the same count and under the same terms, the same measure for `Cc1cc(Br)cc(COC[C@@H](N)c2ccccc2)c1`: 0.02 µM.
`N[C@H](COCc1cc(C(F)(F)F)cc(C(F)(F)F)c1)c1ccccc1`: the pKa in data set [2] stood at 7.93. Besides, the half-inhibitory concentration (IC50) in data set [3] was determined as 0.58 µM; in data set [1], 0.013 µM.
For the compound `CC(OCc1cc(C(F)(F)F)cc(C(F)(F)F)c1)C(N)c1ccccc1` (single isomer, unassigned; diastereomer B), the IC50 in data set [1] was 0.007 µM.
On the same count and under the same terms, the same measure for `N[C@H](COCc1cc(Cl)cc(Cl)c1)c1ccccc1`: 0.049 µM.
For `NC(=O)CN[C@H](COCc1cc(C(F)(F)F)cc(C(F)(F)F)c1)c1ccccc1`, the values for the IC50 in data set [3] and in data set [1] were 2.3 µM and 0.008 µM, respectively.
For `CN(CC(N)=O)[C@H](COCc1cc(C(F)(F)F)cc(C(F)(F)F)c1)c1ccccc1` the same measures were over 10 µM and 0.0058 µM.
Consider `CC(OCc1cc(C(F)(F)F)cc(C(F)(F)F)c1)C(N)c1ccccc1` (single isomer, unassigned; diastereomer A), for which the IC50 in data set [1] was 0.095 µM.
